Measurements: ChEMBL document CHEMBL5653631, “A Potent and Selective ULK1 Inhibitor Suppresses Autophagy and Sensitizes Cancer Cells to Nutrient Stress” (iScience, 2018)
Each block holds one compound with its values, some of them ahead of it.

Assays:
[1] = biological target: T1, Serine/threonine-protein kinase Nek3 (Homo sapiens) (UniProt P51956); test: Inhibition of human recombinant NEK3 at 500 nM in presence of ATP by radiometric assay relative to control
T1 sequence (whole entry): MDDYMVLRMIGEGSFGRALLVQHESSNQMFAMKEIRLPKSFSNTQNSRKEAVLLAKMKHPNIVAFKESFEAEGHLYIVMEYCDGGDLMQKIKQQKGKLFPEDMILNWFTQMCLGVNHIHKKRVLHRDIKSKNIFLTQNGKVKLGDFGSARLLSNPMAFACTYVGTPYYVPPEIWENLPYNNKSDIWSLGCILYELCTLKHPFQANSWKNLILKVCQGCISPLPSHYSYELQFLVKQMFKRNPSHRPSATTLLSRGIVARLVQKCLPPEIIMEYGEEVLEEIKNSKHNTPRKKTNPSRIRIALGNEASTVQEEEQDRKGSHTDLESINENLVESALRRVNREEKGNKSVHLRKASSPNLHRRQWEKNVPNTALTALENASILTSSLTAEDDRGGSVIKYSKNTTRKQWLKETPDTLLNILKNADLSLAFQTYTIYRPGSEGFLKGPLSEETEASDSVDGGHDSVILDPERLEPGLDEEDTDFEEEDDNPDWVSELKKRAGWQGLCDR

[2] = biological target: MAP kinase-activated protein kinase 2 (Homo sapiens) (UniProt P49137); test: Inhibition of human recombinant MAPKAPK2 at 500 nM in presence of ATP by radiometric assay relative to control
Chain of MAP kinase-activated protein kinase 2 (Homo sapiens) (P49137 whole entry, looked up): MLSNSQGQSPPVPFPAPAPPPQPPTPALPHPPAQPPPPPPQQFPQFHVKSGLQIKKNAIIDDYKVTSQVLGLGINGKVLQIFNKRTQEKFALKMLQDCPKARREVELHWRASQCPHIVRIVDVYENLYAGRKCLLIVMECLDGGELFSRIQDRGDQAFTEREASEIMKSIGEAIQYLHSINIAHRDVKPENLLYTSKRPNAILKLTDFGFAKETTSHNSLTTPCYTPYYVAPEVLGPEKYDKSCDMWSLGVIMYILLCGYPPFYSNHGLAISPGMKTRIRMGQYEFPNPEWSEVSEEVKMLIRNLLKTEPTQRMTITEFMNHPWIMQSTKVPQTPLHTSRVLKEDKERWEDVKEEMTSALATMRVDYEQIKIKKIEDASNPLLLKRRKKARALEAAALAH

[3] = biological target: Serine/threonine-protein kinase MARK1 (Homo sapiens) (UniProt Q9P0L2); test: Inhibition of human recombinant MARK1 at 40 nM related to control ULK1
Chain of Serine/threonine-protein kinase MARK1 (Homo sapiens) (Q9P0L2 whole entry, looked up): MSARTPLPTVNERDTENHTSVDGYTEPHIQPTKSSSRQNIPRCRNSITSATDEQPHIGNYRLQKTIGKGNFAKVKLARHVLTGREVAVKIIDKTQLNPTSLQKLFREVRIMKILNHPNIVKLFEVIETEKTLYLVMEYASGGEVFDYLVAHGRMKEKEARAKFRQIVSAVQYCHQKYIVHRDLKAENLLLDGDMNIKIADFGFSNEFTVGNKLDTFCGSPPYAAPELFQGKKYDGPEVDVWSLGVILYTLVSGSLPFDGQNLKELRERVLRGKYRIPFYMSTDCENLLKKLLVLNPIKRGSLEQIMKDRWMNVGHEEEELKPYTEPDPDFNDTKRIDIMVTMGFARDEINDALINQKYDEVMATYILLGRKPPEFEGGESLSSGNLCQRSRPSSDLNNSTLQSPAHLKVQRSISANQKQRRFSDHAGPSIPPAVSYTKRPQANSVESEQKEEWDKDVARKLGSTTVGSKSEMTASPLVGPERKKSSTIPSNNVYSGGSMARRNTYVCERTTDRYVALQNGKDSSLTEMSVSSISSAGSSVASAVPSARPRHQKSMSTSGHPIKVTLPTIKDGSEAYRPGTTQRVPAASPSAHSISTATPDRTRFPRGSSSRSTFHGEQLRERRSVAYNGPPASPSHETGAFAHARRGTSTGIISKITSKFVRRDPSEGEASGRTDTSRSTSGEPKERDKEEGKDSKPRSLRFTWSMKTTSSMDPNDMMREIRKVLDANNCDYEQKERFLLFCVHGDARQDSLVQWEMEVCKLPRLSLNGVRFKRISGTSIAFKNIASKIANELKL

[4] = biological target: Mitogen-activated protein kinase 8 (Homo sapiens) (UniProt P45983); test: Inhibition of human recombinant JNK1 at 40 nM in presence of ATP by radiometric assay relative to control
Chain of Mitogen-activated protein kinase 8 (Homo sapiens) (P45983 whole entry): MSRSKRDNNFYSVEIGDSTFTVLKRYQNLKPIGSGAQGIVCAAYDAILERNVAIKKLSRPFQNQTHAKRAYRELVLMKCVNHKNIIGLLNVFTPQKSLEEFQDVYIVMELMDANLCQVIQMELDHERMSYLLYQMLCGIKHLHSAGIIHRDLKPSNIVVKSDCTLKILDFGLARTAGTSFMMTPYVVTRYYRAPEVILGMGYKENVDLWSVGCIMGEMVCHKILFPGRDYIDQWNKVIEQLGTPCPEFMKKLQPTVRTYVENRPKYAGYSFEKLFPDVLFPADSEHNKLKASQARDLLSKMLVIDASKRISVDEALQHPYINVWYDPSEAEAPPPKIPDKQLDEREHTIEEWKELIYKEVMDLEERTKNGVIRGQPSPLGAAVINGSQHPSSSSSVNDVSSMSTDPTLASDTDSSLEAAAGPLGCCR

[5] = biological target: T2, Tyrosine-protein kinase JAK3 (Homo sapiens) (UniProt P52333); test: Inhibition of human recombinant JAK3 at 40 nM related to control ULK1
T2 sequence (whole entry): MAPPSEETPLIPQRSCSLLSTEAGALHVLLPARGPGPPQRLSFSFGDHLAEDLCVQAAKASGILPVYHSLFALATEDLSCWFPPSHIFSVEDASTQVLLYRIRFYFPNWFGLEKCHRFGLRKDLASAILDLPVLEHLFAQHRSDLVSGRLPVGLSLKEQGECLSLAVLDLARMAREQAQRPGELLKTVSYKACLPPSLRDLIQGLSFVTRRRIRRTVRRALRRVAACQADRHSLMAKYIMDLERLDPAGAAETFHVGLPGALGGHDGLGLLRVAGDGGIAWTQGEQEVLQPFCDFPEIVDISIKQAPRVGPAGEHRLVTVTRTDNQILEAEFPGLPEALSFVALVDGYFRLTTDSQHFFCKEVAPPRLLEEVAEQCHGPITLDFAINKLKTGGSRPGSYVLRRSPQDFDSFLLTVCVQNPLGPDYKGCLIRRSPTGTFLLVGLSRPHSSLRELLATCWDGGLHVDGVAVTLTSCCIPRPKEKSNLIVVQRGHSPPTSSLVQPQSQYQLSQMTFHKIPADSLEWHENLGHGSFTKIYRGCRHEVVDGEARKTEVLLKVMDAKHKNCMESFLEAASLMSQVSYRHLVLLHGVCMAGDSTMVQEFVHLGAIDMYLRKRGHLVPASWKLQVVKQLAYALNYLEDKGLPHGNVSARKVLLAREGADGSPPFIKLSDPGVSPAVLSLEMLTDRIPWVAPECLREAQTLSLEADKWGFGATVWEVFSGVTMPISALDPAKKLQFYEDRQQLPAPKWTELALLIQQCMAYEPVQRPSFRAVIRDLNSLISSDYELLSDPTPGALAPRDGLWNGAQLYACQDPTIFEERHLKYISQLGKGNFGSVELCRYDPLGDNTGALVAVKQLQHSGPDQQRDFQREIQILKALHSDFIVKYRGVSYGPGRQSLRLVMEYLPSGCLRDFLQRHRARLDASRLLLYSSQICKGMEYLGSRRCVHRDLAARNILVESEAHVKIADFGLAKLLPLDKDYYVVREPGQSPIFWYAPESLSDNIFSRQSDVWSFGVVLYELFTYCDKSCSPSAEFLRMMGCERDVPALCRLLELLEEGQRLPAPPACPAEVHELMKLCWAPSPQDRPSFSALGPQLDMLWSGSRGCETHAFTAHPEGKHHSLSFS

[6] = biological target: cAMP-dependent protein kinase catalytic subunit alpha (Homo sapiens) (UniProt P17612); test: Inhibition of human recombinant PKACalpha at 15 nM related to control ULK1
[7] = biological target: Dual specificity protein kinase CLK2 (Homo sapiens) (UniProt P49760); test: Inhibition of human recombinant CLK2 at 15 nM in presence of ATP by radiometric assay relative to control
Chain of Dual specificity protein kinase CLK2 (Homo sapiens) (P49760 whole entry, looked up): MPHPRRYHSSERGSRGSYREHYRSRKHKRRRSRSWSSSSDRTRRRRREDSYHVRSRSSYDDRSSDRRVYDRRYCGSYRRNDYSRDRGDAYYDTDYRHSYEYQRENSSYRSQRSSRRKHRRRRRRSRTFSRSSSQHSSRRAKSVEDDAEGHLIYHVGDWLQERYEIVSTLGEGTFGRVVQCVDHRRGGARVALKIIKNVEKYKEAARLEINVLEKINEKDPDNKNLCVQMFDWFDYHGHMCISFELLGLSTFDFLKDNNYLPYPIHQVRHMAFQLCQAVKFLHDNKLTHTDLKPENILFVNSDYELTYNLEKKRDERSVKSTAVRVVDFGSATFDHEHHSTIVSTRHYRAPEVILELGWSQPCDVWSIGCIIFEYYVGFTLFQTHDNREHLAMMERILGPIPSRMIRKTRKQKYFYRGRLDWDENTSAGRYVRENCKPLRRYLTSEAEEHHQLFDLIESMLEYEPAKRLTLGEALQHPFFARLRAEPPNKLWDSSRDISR

[8] = biological target: Serine/threonine-protein kinase 35 (Homo sapiens) (UniProt Q8TDR2); test: Inhibition of human recombinant CLIK1 at 15 nM related to control ULK1
Chain of Serine/threonine-protein kinase 35 (Homo sapiens) (Q8TDR2 whole entry): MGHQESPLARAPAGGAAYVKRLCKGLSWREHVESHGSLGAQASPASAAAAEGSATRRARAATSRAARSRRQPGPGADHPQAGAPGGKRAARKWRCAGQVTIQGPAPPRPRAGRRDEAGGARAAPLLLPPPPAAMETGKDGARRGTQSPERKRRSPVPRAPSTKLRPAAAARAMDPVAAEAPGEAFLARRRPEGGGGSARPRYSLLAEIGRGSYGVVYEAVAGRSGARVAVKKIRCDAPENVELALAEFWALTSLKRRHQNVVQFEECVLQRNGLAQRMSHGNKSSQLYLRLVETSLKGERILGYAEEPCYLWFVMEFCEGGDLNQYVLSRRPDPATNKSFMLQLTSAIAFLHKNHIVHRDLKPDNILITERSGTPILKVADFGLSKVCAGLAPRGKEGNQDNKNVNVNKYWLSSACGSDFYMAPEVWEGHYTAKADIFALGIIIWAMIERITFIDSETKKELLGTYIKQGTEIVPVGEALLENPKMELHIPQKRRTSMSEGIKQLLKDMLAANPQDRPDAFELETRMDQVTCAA

[9] = biological target: Myosin light chain kinase, smooth muscle (Homo sapiens) (UniProt Q15746); test: Inhibition of human recombinant smMLCK at 15 nM related to control ULK1
Chain of Myosin light chain kinase, smooth muscle (Homo sapiens) (Q15746 whole entry): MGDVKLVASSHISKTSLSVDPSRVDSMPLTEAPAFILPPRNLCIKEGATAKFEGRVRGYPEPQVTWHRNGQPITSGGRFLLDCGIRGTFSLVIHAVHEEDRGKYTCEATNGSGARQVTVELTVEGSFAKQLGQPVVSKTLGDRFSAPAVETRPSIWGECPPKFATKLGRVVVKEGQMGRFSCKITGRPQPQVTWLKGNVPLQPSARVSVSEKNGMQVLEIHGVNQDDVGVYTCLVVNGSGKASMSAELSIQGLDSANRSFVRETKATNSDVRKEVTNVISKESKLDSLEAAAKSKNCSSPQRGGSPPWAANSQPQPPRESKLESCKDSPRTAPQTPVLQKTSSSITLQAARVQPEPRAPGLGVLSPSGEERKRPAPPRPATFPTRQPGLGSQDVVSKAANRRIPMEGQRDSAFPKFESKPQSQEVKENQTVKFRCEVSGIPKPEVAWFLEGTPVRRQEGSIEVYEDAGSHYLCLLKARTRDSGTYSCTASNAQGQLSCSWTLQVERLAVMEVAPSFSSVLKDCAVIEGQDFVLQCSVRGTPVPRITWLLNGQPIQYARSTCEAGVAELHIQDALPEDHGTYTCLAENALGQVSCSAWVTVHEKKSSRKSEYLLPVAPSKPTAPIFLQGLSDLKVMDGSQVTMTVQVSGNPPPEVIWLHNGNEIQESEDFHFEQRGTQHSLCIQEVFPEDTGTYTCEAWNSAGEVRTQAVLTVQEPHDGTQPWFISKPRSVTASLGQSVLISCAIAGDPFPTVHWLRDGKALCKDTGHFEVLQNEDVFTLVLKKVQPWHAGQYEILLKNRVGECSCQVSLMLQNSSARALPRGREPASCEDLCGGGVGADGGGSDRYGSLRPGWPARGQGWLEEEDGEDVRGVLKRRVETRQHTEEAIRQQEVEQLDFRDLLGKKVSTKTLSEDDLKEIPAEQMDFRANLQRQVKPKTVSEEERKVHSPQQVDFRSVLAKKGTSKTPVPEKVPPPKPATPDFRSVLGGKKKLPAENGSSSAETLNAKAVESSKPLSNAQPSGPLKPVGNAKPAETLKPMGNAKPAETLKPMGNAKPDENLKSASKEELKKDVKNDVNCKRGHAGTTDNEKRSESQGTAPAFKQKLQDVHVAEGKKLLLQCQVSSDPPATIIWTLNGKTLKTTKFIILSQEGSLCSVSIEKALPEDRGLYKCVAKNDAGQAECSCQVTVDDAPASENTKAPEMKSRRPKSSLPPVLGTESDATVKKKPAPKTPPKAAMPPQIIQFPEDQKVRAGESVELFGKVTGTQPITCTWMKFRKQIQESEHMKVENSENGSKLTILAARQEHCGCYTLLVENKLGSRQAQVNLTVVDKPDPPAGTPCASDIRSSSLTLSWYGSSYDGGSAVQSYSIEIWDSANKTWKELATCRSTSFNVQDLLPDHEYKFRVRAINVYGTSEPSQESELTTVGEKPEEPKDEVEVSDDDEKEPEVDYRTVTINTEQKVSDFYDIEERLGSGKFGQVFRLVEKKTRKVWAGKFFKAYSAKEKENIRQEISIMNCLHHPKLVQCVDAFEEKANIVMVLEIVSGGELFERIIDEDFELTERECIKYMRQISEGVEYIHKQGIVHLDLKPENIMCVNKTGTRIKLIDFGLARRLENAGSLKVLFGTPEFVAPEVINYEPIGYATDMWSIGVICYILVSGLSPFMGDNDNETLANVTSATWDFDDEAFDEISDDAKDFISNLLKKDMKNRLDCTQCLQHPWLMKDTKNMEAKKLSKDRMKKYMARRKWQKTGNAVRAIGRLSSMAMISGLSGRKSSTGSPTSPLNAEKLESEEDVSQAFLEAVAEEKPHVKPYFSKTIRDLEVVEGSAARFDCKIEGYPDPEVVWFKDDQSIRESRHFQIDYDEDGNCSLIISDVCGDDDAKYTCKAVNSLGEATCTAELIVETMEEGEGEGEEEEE

[10] = biological target: T3, cAMP-dependent protein kinase catalytic subunit PRKX (Homo sapiens) (UniProt P51817); test: Inhibition of human recombinant PRKX at 15 nM related to control ULK1
T3 sequence (whole entry): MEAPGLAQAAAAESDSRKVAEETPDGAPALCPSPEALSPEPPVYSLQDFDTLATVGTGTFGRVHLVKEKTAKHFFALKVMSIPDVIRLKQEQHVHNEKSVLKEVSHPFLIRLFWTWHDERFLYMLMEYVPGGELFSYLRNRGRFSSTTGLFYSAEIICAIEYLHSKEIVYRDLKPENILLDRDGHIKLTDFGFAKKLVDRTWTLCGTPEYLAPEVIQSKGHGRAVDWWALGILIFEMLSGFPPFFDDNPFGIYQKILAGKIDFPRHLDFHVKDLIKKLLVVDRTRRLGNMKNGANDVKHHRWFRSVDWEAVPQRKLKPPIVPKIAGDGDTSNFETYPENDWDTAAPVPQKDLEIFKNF

- inhibition [1]: 7%
- inhibition [2]: 0%
SMILES: CNC(=O)c1ccccc1Oc1nc(Nc2cc(OC)c(OC)c(OC)c2)ncc1Br

- fold change (FC) [3]: 0.4
- inhibition [4]: 0%
- fold change (FC) [5]: 0
SMILES: O=C(N[C@@H](C1CC1)C(F)(F)F)c1cc(-c2cnn3cc(-c4ccc(F)cc4)cnc23)cs1

- fold change (FC) [6]: 0
- inhibition [7]: 29%
- fold change (FC) [8]: 0.1
- fold change (FC) [9]: 0
- fold change (FC) [10]: 0.18
SMILES: CC(C)[C@H](NC(=O)c1cc(-c2cnn3cc(-c4ccc(OCCN5CCCCC5)cc4)cnc23)cs1)C(F)(F)F
